{
  "source": "paper PMC10845965",
  "about": "“Gold(I) ion and the phosphine ligand are necessary for the anti-Toxoplasma gondii activity of auranofin” (Microbiology Spectrum, 2024)",
  "key": {"T. gondii in HFF": {"tested_on": "T. gondii in HFF", "test": "Egress assay (LDH release)", "type": "cell-based, Toxoplasma gondii", "details": "30 hours infection, then 40 min with A23187 5 µM, zaprinast 57 µM or auranofin 5 µM", "description": "The egress assay was modified from previously published methods to measure lactate dehydrogenase (LDH) content as a function of egress (host membrane damage induced by parasite egress) ([33], [34]). Confluent monolayers of HFF in a 24-well plate were inoculated with 5 × 10^5 parasites (freshly mechanically released by needle and filtered through a 3 µm filter) for 30 hours before each drug treatment in three technical triplicates. These infected HFF monolayers were rinsed with 37°C Ringer’s solution (Ward’s Science) three times and supplied with 5 µM calcium ionophore A23187 (ACROS), 57 µM Zaprinast (Alfa Aesar), 5 µM auranofin (Enzo Life Sciences), or DMSO control (all in 5 µl) for 40 min in 5% CO2 and 37°C. The culture supernatant was collected from wells and centrifuged at 4°C and 500 g for 5 min. The solution was kept at 4°C and assayed immediately for the LDH content. The A490 reading is directly proportional to a known amount of LDH (standard curve) (CytoTox 96 Nonradioactive Cytotoxicity Assay, Promega). Egress induced by each drug is presented as a relative value after subtracting control levels of LDH induced by DMSO alone (the solvent for all drugs included in this assay) from the levels of LDH induced by the drugs. A t-test to determine the statistical difference between the relative egress triggered by auranofin and A23187 or auranofin and Zaprinast from three independent experiments was used."}, "[1]": {"tested_on": "YFP+ RH parasites (T. gondii) invading HFF", "test": "Invasion assay", "type": "cell-based, Toxoplasma gondii", "description": "We performed invasion assays with or without pre-treatment of T. gondii tachyzoites with auranofin, as modified from previously described assays ([28][–][31]). We used RH parasites expressing YFP ([32]). First, we determine the best concentration of auranofin to achieve stable host cell morphology and viability (HFF) while maximizing the effect of auranofin in T. gondii by titration of auranofin (doses ranging from 1 to 5 µM). The best auranofin dose fitting our criteria was 3 µM. Therefore, we performed a modified invasion assay using 2.5 × 10^6 parasites freshly lysed YFP+ RH parasites ([29]) that were filtered and centrifuged before each assay as follows: […]\nAfter the 30-min invasion, all host cells were washed with PBS and fixed with 4% paraformaldehyde, blocked with 3% bovine serum albumin (BSA), and then incubated with anti-SAG-1 antibody (DG52) (David Sibley, Washington University in St. Louis) ([4]) for 1 hour, followed by incubation with goat anti-mouse IgG conjugated to Alexa-594 fluorophore (A19069, Thermo Fisher). For quantification, eight randomly selected fields (with a minimum of 300 parasites) were counted for each sample. […] The invasion rate was calculated by dividing the number of intracellular parasites by the total number of parasites counted."}, "[2]": {"tested_on": "extracellular T. gondii RH parasites", "test": "Annexin V assay (phosphatidylserine externalization)", "type": "cell-based, Toxoplasma gondii", "details": "auranofin 2.5 µM, 24 hours; control 11.2 ± 2.937", "description": "(§1) A confluent monolayer of HFF was infected with purified RH parasites (freshly mechanically released by needle and filtered through a 3 µm filter). The monolayer remained undisturbed for 24 hours to allow for invasion and replication. On the day of treatment, extracellular parasites were mechanically released and harvested after differential centrifugation ([35]) at 35 × g for 5 minutes to prevent parasite loss before processing. The supernatant was then collected and centrifuged at 1,350 × g for 10 minutes to pellet the extracellular parasites. Parasites were plated in a 12-well plate (2.7 × 10^7 per well) into 1 mL of D10 in DMSO (control) or auranofin (2.5 µM) containing media and incubated for 24–48 hours at 37°C with 5% CO2 before collection.\nGiven the smaller size of parasites after auranofin treatment, we evaluated whether T. gondii death occurred by apoptosis via Annexin V assays (Invitrogen). After 24 hours of treatment, parasites were collected, washed with PBS, and resuspended in Annexin binding buffer (10 mM HEPES, 140 mM NaCl, and 2.5 mM CaCl2, pH 7.4) at a concentration of 10^6 parasites per mL. One hundred microliters of this parasite suspension was stained with Annexin V-Alexa fluor conjugate before flow cytometry analysis. A t-test was used to determine the statistical difference between control or auranofin treatment groups from three independent experiments."}, "RH T. gondii": {"tested_on": "RH T. gondii", "test": "Plaque assay and IC50 determination", "type": "cell-based, Toxoplasma gondii", "details": "plaque assay, 5 days; for inhibition of T. gondii growth in vitro: 0–40 µM", "description": "We measured the inhibition of parasite growth by plaque assay as modified from a previously established method ([27], [28]). Confluent monolayers of HFF in six-well plates were inoculated with 1 × 10^2 parasites of RH T. gondii. Immediately after, each well received D10 containing specified concentrations of each compound. Plates were incubated undisturbed for 5 days at 37°C in a humidified incubator with 5% CO2. On the fifth day, each well was rinsed once with phosphate-buffered saline (PBS), fixed with 4% paraformaldehyde (15 min at room temperature), and stained with crystal violet for 2–3 min. Plaques (visualized as irregular clear areas of cell lysis against the violet background of intact host cells) were enumerated for each well. To generate the inhibition curve, plaque numbers (represented as a percentage of plaques relative to the no drug control) were plotted vs drug concentration. The IC50 value was calculated from the inhibitor vs normalized response curve with variable slope. The results represented the average of three independent IC50 assays ± standard error of the mean."}, "HFF host cells": {"tested_on": "HFF host cells", "test": "Host cell viability and TD50 determination", "type": "cell-based, human", "details": "5 days incubation, tetrazolium assay", "description": "Confluent monolayers of HFF host cells (approximately 1 × 10^4) plated in clear bottom 96-well plates were treated with twofold dilutions of compounds of interest. After 5 days of incubation, 15 µL of dye solution (tetrazolium salt) was added to each well. The plates were incubated at 37°C for 4 hours; then, the reaction was stopped to solubilize the formazan product (Cell Titer 96 Nonradioactive Cell Proliferation Assay Promega). Absorbance at 570 ʎ (A570) was recorded using a multimode microplate plate reader (Molecular Devices Spectramax i5, SoftMax Pro 7.0.2 Software). The A570 absorbance reading is directly proportional to the number of viable cells. The values are presented as percentages of cell viability relative to the untreated controls (defined as 100% survival) and plotted against the log of compound concentrations. The log (auranofin derivative) vs cell viability curve with variable slope was generated to calculate TD50 values."}, "[3]": {"tested_on": "YFP+ RH parasites (T. gondii) in HFF", "test": "Replication assay", "type": "cell-based, Toxoplasma gondii", "description": "Confluent HFF monolayers were infected with 5 × 10^5 YFP+ RH parasites in coverslips. Following 1-hour incubation at 37°C to allow for invasion, the monolayer was rinsed with PBS, and D10 in DMSO (control) or auranofin containing (2.5 µM) media was added back. Coverslips were then incubated for 24 hours to allow for parasite replication. Coverslips were then fixed in 4% paraformaldehyde and mounted with DAPI-containing mounting media. Parasites were identified as DAPI+/YFP+ under fluorescence microscopy. The number of parasites per parasitophorous vacuole was counted across 10 random fields of view per coverslip. At least 100 parasitophorous vacuoles (PV) per condition were counted from three independent experiments. Results were grouped into the following categories according to the number of parasites per PV: 1, 2, 4, and >4 parasites. A chi-square trend test was used to determine the statistical difference between the PV category of the control and auranofin treatment from three independent experiments."}, "[4]": {"tested_on": "extracellular T. gondii RH parasites", "test": "Parasite size by flow cytometry (forward scatter)", "type": "cell-based, Toxoplasma gondii", "details": "auranofin 2.5 µM", "description": "as §1\nParasite size after treatment with auranofin was determined by flow cytometry (forward scattering). At the end of each incubation time, parasites (1 × 10^5) were resuspended in 1 mL of PBS to prepare them for flow cytometry."}, "[5]": {"tested_on": "Leishmania spp. (promastigotes and amastigotes)", "design": "method as in PMID 24328400", "details": "cited from earlier work"}, "[6]": {"details": "Fig 7, unit inferred, read-out: IC50"}, "[7]": {"details": "HFF infected with RH T. gondii, read-out: IC50 (inhibition of parasite growth)"}},
  "note": "Several values for one entry are separate records, joined by “and”; a condition that tells them apart may be missing. Identical values can stand only once. Entries after “also recorded” stand apart in the source; their conditions may differ. Like-named read-outs stand apart in the source and are kept apart here.",
  "data": [
    {"smiles": "CNc1ccc2oc(C[C@H]3O[C@@]4(CC[C@H]3C)O[C@H]([C@H](C)C(=O)c3ccc[nH]3)[C@H](C)C[C@H]4C)nc2c1C(=O)O", "note": "[A23187]", "values": [
      {"measurement": "relative egress level (LDH, normalized to DMSO)", "setting": "T. gondii in HFF", "result": "0.4533 ± 0.01148"}
    ]},
    {"smiles": "CC(=O)OC[C@H]1O[C@@H]([S-])[C@H](OC(C)=O)[C@@H](OC(C)=O)[C@@H]1OC(C)=O.CCP(CC)CC.[Au+]", "note": "[Auranofin]", "values": [
      {"measurement": "invasion rate (T. gondii that successfully invaded host cells)", "setting": "[1]; parasites pre-treated with auranofin 3 µM for 30 min before invasion, control 35%", "result": 18, "unit": "%"},
      {"measurement": "invasion rate (T. gondii that successfully invaded host cells)", "setting": "[1]; without pre-treatment, auranofin 3 µM during 30 min invasion, control 59%", "result": 60, "unit": "%"},
      {"measurement": "phosphatidylserine externalization (PS) by Annexin V assay", "setting": "[2]", "result": "29.16 ± 3.615 relative fluorescent units"},
      {"measurement": "IC50", "setting": "RH T. gondii; [6]", "result": 560, "unit": "nM"},
      {"measurement": "relative egress level (LDH, normalized to DMSO)", "setting": "T. gondii in HFF", "result": "0.2768 ± 0.034"},
      {"measurement": "relative egress level (LDH, normalized to DMSO)", "setting": "T. gondii in HFF; listed as auranofin", "result": "0.2768 ± 0.03435 and 0.3272 ± 0.009"},
      {"measurement": "TD50 (cytotoxicity in host cells)", "setting": "HFF host cells", "result": 5.14, "unit": "µM"},
      {"measurement": "host cell monolayer integrity", "setting": "[3]; HFF monolayer, 24 hours of auranofin treatment", "result": "did not show changes in the monolayer integrity"},
      {"measurement": "effect on parasite replication (parasites per parasitophorous vacuole)", "setting": "[3]; auranofin 2.5 µM for 24 hours after 1 hour invasion", "result": "did not inhibit parasite replication"},
      {"measurement": "parasite size (FSC-H)", "setting": "[4]; 24 hours, control 201.2 ± 4.064", "result": "152.7 ± 8.225"},
      {"measurement": "parasite size (FSC-H)", "setting": "[4]; 48 hours, control 169.9 ± 66.25", "result": "123.5 ± 7.339"}
    ]},
    {"smiles": "OC[C@H]1O[C@H]([S-])[C@H](O)[C@@H](O)[C@@H]1O.[Au+]", "note": "[Aurothioglucose, aurothioglucose]", "values": [
      {"measurement": "inhibition of T. gondii growth in vitro", "setting": "RH T. gondii", "result": "did not display inhibitory activity"},
      {"measurement": "inhibition of T. gondii growth in vitro", "setting": "RH T. gondii; listed as aurothioglucose", "result": "neither aurothioglucose nor aurothiomalate inhibited the growth"}
    ]},
    {"smiles": "O=C(O)CC([S-])C(=O)O.[Au+]", "note": "(stereo not drawn) [Aurothiomalate, aurothiomalate]", "values": [
      {"measurement": "inhibition of T. gondii growth in vitro", "setting": "RH T. gondii", "result": "neither aurothioglucose nor aurothiomalate inhibited the growth; also recorded: did not display inhibitory activity"}
    ]},
    {"smiles": "[Cl][Au][PH](Cc1ccccc1)(c1ccccc1)c1ccccc1", "note": "[Compound 6]", "values": [
      {"measurement": "IC50", "setting": "RH T. gondii; [6]", "result": 450, "unit": "nM"},
      {"measurement": "IC50", "setting": "RH T. gondii; [7]", "result": 460, "unit": "nM"},
      {"measurement": "TD50 (cytotoxicity in host cells)", "setting": "HFF host cells", "result": 4.87, "unit": "µM"}
    ]},
    {"smiles": "[Cl][Au].c1ccc(P(c2ccccc2)c2ccccc2)cc1", "note": "[Compound 31]", "values": [
      {"measurement": "IC50", "setting": "RH T. gondii; [7]", "result": 1410, "unit": "nM"},
      {"measurement": "toxicity to host cells compared with auranofin", "setting": "[5]", "result": "less toxic to host cells than auranofin and compounds 6, 10, and 39"},
      {"measurement": "antiparasitic activity against Leishmania spp. compared with auranofin", "setting": "[5]; extracellular and intracellular forms", "result": "higher IC50 than auranofin"},
      {"measurement": "TD50 (cytotoxicity in host cells)", "setting": "HFF host cells", "result": 178, "unit": "µM"}
    ]},
    {"smiles": "CCCOc1ccccc1-c1nc2nn[nH]c2c(=O)[nH]1", "note": "[Zaprinast, zaprinast]", "values": [
      {"measurement": "relative egress level (LDH, normalized to DMSO)", "setting": "T. gondii in HFF", "result": "0.3272 ± 0.009"},
      {"measurement": "relative egress level (LDH, normalized to DMSO)", "setting": "T. gondii in HFF; listed as zaprinast", "result": "0.2768 ± 0.034"}
    ]}
  ]
}
